Among the data in patent publication US6855730B2, “3-methylidenyl-2-indolinone modulators of protein kinase” (Sugen, Inc., priority 1998, dated 2005) are IC50 values, retold here.

For one assay, the target named is T1, PDGFR-β (Homo sapiens, UniProt P09619).
T1 construct: host or cells: NIH 3T3
Nature of the assay: Biochemical PDGFR assay (ELISA, PDGFR-β expressing NIH 3T3 cell lysate). The following applies: read-out: bio PDGF IC50. Put shortly: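 Phosphorylation was read by ELISA (anti-phosphotyrosine serum, peroxidase secondary, ABTS at 410 nm) after a 30 min room-temperature reaction with 20 μM ATP, EDTA-stopped. Kinase was lysate-derived PDGFR-β (NIH 3T3) immobilised via 28D4C10 antibody, compound added 30 min before ATP.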
(In general: In an ELISA, binding on a coated surface is turned into a signal by an enzyme label.)

Assay [1] deals with Myc-GyrB-FGFR fusion protein (Homo sapiens, UniProt P11362). Nature of the assay: Biochemical FGFR assay (ELISA). The following applies: read-out: bio fgfR1 IC50.
Method: This assay measures in vitro kinase activity of the Myc-GyrB-FGFR fusion protein using ELISA.
Materials and Reagents • 1. HNTG
PBS (Dulbecco's Phosphate-Buffered Saline, Gibco Catalog # 450-1300EB). • 3. Blocking Buffer. • 4. Kinase Buffer.
Working solution: 100 mM in ethanol. • 6.
ABTS Solution. • 10. Hydrogen peroxide 30% solution ( Fisher Catalog # H325). • 11. ABTS/H2O2. • 12. 0.2 M HCl. • 13.
Prepare 1.0 mM solution in MilliQ H2O, adjust pH to 7.2 with HCl. • 14.
Prepare 5 M solution in MilliQ H2O. • 15. MgCl, (Fisher Cat. No. M33-500).
Prepare 1 M solution in MilliQ H2O. • 16. HEPES (Fisher Cat. No. BP310-500).
Prepare 1 M solution in MilliQ H2O, adjust pH to 7.5, sterile filter. • 17. TBST Buffer. • 18. Sodium Carbonate Buffer (Fisher Cat. No. S495).
Prepare 0.1 M solution in MilliQ H2O, adjust pH to 9.6 with NaOH, filter. • 19. Dithiothreitol (DTT, Fisher Cat. No. BP172-25).
Prepare 0.5 mM working solution in MilliQ H2O just prior to-use. Store at −20° C. until used, discard any leftover. • 20. MnCl2. • 21. Triton X-100. • 22. Goat α-Rabbit IgG (Cappel). • 23. Affinity purified Rabbit α GST GyrB (Biochemistry Lab. SUGEN, Inc.).
All of the following steps are conducted at room temperature unless otherwise indicated. • 1. Coat Corning 96-well ELISA plates with 2 μg Goat α-Rabbit antibody per well in Carbonate Buffer such that total well volume is 100 μl. Store overnight at 40° C. • 2. Remove unbound Goat a-Rabbit antibody by inverting plate to remove liquid. Pat plate on a paper towel to remove excess liquid and bubbles • 3.. Add 150 μl Blocking Buffer (5% Low Fat Milk in PBS) to each well. Incubate while shaking on a micro-titer plate shaker for 30 min. • 4. Wash 4× with TBST. Pat plate on a paper towel to remove excess liquid and bubbles. • 5. Add 0.5 μg Rabbit α-GyrB antibody per well. Dilute antibody in DPBS to a final volume of 100 μl per well. Incubate with shaking on a micro-titer plate shaker at room temperature for 1 hour. • 6. Wash 4× with TBST as described in step 4. • 7. Add 2 μg COS/FGFR cell lysate (Myc-GyrB-FGFR source) in HNTG to each well to give a final volume of 100 μl per well. Incubate with shaking on a micro-titer plate shaker for 1 hour. • 8. Wash 4× with TBST as described in step 4. • 9. Add 80 μl of 1× kinase buffer per well. • 10. […] Transfer 10 μ l of diluted test compound solution and control wells from polypropylene plate wells to the corresponding ELISA plate wells, incubate with shaking on a micro-titer plate shaker for 20 minutes. • 12. Add 10 μl of 70 μM ATP diluted in kinase buffer to positive control and test wells (Final ATP concentration is 7 EM/well). Add 10 μl 1× kinase buffer to negative control wells. Incubate with shaking on a micro-titer plate shaker for 15 min. • 13. Stop kinase reaction by adding 5 μl 0.5 M EDTA to all wells. • 14. Wash 4× with TBST as described in step 4. • 15. Add 100 μl biotin conjugated α-phosphotyrosine mab (b4G10) diluted in TBST to each well. Incubate with shaking on a micro-titer plate shaker for 30 minutes. • 16. Prepare Vectastain ABC reagent. […] Mix by inverting tube several times. Add 1 drop reagent B and mix again. • 17. Wash 4× with TBST as described in step 4. • 18. Add 100 μl ABC HRP reagent to each well. Incubate with shaking on a micro-titer plate shaker for 30 minutes. • 19. Wash 4× with TBST as described in step 4. • 20. Add 100 μl of ABTS/H2O2 solution to each well. • 22. Incubate 5 to 15 minutes with shaking. Remove any bubbles. • 23. If necessary stop reaction by adding 1 00 μl of 0.2M HCl/well. • 24.
The target of the next assay is T2, src protein kinase (Gallus gallus, UniProt P00523).
T2 construct: host or cells: Schizosaccharomyces pombe SP200
Nature of the assay: Biochemical SRC assay (phosphorylation of biotinylated peptide). The following applies: read-out: bio src IC50.

Another assay addresses T3, flkGST (Homo sapiens, UniProt P35968).
T3 construct: GST
Nature of the assay: bio flkGST assay. The class given is biochemical.

Molecules are shown by their SMILES. Where a name gives a salt, the structure may show the parent alone. Bounds are passed on as bounds.

T1 sequence (P09619 33-1106): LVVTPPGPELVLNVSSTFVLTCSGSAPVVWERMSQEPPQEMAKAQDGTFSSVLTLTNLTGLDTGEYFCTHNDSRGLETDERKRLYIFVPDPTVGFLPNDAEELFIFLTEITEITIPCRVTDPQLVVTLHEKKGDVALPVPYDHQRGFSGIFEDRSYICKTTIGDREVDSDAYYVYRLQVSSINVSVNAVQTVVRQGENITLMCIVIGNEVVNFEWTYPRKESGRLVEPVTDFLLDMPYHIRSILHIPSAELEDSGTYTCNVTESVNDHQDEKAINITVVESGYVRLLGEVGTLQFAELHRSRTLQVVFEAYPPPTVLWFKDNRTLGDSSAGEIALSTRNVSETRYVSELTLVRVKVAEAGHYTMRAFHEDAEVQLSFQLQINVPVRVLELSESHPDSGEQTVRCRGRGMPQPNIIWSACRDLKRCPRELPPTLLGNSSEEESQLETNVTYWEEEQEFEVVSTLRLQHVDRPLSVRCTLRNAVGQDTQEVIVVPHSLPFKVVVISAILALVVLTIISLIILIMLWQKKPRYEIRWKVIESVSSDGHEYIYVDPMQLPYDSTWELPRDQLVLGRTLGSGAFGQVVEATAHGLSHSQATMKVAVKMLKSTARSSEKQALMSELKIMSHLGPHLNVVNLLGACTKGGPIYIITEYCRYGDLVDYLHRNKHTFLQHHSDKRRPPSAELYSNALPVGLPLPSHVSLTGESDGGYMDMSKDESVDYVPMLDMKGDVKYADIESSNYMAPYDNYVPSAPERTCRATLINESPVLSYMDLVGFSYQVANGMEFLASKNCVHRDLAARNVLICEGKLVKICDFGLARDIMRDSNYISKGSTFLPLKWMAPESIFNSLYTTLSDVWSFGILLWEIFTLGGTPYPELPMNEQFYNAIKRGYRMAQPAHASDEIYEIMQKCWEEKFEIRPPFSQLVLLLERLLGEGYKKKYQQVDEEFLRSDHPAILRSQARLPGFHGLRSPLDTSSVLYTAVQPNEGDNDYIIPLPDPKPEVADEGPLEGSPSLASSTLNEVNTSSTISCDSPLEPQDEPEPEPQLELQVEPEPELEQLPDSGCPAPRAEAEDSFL
T3 sequence (P35968 786-1356 limits assumed): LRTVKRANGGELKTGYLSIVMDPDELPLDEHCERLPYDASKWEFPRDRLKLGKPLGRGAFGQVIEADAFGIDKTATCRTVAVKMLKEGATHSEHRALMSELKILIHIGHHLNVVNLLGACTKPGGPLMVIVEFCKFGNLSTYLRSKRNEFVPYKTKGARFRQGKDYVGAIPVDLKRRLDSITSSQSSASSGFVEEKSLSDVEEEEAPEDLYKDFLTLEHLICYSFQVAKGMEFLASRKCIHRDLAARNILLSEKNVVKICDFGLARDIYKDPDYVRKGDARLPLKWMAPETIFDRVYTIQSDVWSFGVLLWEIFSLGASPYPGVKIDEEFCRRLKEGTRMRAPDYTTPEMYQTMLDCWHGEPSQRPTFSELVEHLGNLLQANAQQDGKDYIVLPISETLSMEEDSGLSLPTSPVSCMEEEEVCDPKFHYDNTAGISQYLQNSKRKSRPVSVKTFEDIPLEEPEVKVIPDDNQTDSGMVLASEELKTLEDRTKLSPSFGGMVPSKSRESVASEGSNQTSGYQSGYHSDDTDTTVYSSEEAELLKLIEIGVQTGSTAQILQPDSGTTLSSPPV
Chain of Myc-GyrB-FGFR fusion protein (P11362 478-767 limits assumed): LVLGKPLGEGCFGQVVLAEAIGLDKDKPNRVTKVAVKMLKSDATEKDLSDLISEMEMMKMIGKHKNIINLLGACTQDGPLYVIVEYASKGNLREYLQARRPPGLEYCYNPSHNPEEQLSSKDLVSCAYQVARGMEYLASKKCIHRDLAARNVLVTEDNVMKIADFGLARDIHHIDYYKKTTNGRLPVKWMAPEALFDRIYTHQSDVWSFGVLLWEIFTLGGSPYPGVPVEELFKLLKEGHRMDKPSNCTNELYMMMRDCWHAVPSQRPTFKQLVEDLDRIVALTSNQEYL
Method for src protein kinase: This assay is used to determine src protein kinase activity measuring phosphorylation of a biotinylated peptide as the readout.
Yeast transformed with src (Sugen, Inc., Redwood City, Calif.). • b. Cell lysates: Yeast cells expressing src are pelleted, washed once with water, re-pelleted and stored at −80° C. until use. • c. N-terminus biotinylated [sequence] is prepared by standard procedures well known to those skilled in the art. • d. DMSO: Sigma, St. Louis, Mo. • e. […] Vecastain ELITE ABC reagent: Vector, Burlingame, Calif. • h. […] S. Pombe strain SP200 (h-s leul.32 ura4 ade210) is grown as described and transformations are pRSP expression plasmids are done by the lithium acetate method (Superti-Furga, supra). Cells are grown in the presence of 1 μM thiamine to repress expression from the nmtl promoter or in the absence of thiamine to induce expression. • i. […] Turbo TMB-ELISA peroxidase substrate: Pierce Chemical.
Buffer Solutions • a. PBS (Dulbecco's Phosphate-Buffered Saline): GIBCO PBS, GIBCO Cat. #450-1300EB. • b. Blocking Buffer: 5% Non-fat milk (Carnation) in PBS. • c. Carbonate Buffer: Na2CO4 from Fischer, Cat. # S495, make up 100 mM stock solution. • d. Kinase Buffer: 1.0 ml (from 1M stock solution) MgCl2, 0.2 ml (from a 1M stock solution) MnCl2, 0.2 ml (from a 1M stock solution) DTT, 5.0 ml (from a 1M stock solution) HEPES, 0.1 ml TX-100, bring to 10 ml total volume with MilliQ H2O. • e. […] NaCl: Fischer Cat. # S271-10, Make up 5M stock solution with MilliQ H2O. • i. […] MgCl2: Fischer Cat. # M33-500, make up 1M stock solution with MilliQ H2O. • k. […] MnCl2: Fischer Cat. # M87-100, make up 1M stock solution with MilliQ H2O. • n. DTT: -Fischer Cat. # BP172-5. • o. […] Kinase Reaction Mixture: Amount per assay plate (100 wells): 1.0 ml Kinase Buffer, 200 λg GST-ζ, bring to final volume of 8.0 ml with MilliQ H2O. • q. […] Then add 1 drop of reagent B. Put tube on orbital shaker at room temperature and mix for 30 minutes.
Preparation of src Coated ELISA Plate. • 1. Coat ELISA plate with 0.5 μg/well anti-src mab in 100 μl of pH 9.6 sodium carbonate buffer, hold at 40° C. overnight. • 2. Wash wells once with PBS. • 3. […] Wash plate 5× with PBS. • 5. Add 10 μg/well of src transformed yeast lysates diluted in Lysis Buffer (0.1 ml total volume per well). (Amount of lysate may vary between batches.) Shake plate for 20 minutes at room temperature.
Preparation of Phosphotyrosine Antibody-coated ELISA Plate. • 1. 4G10 plate: coat 0.5 μg/well 4G10 in 100 μl PBS overnight at 4° C. and block with 150 μl of 5% milk in PBS for 30 minutes at room temperature.
Kinase Assay Procedure. • 1. Remove unbound proteins from plates and wash plates 5× with PBS. • 2. […] Wash plate 5× with TBST. • 10. Incubate with Vectastain ELITE ABC reagent (100 μl/well) for 30 min. at room temperature. • 11. Wash the wells 5× with TBST. • 12. Develop with Turbo TMB.

By IC50 is commonly meant the concentration that gives 50% inhibition. Take `CNS(=O)(=O)c1ccc2c(c1)C(=Cc1[nH]c3ccccc3c1C)C(=O)N2` (racemic) [Example 154, 3-(3-Methyl-1H-indol-2-ylmethylene)-2-oxo-2,3-dihydro-1H-indole-5-sulfonic acid methylamide]: the values for the IC50 (on PDGFR-β; in assay [1]; at src protein kinase) were greater than 100 µM, greater than 20 µM and greater than 100 µM, respectively.
With `COc1ccc(/C=C2/C(=O)Nc3ccc(F)cc32)cc1C1CCCC1` [Example 11, 3-(3-Cyclopentyl-4-methoxybenzylidene)-5-fluoro-1,3-dihydroindol-2-one], the half-inhibitory concentration (IC50) is 24.1 µM on flkGST and greater than 100 µM on PDGFR-β.
For the compound `COc1cccc(-c2cc(OC)c(OC)cc2/C=C2/C(=O)Nc3ccc(Cl)cc32)c1` [Example 61, 5-Chloro-3-(4,5-3′-Trimethoxybiphenyl-2-ylmethylene)-1,3-dihydroindol-2-one], the half-maximal inhibitory concentration (IC50) on PDGFR-β was greater than 100 µM.
For the compound `COc1cc(/C=C2/C(=O)Nc3ccccc32)c(-c2ccc3ccccc3c2)cc1OC` [Example 62, 3-(4,5-Dimethoxy-2-naphthalen-2-ylbenzylidene)-1,3-dihydroindol-2-one], the IC50 at PDGFR-β was greater than 100 µM.
With `COc1ccc2c(c1)NC(=O)/C2=C/c1ccc(OC)c(-c2ccsc2)c1` [Example 64, 6-Methoxy-3-(4-methoxy-3-thiophen-3-ylbenzylidene)-1,3-dihydroindol-2-one], on PDGFR-β, the half-inhibitory concentration (IC50) is greater than 100 µM.
With `Cc1cc(CCC(=O)O)c(/C=C2\C(=O)Nc3cc(-c4ccc(F)cc4)ccc32)[nH]1` [Example 107, 3-{2-[6-(4-Fluorophenyl)-2-oxo-1,2-dihydroindol-3-ylidenemethyl]-5-methyl-1H-pyrrol-3-yl}propionic acid], the IC50 on flkGST was 2.15 µM; at PDGFR-β, less than 0.78 µM; in assay [1] it was 6.16 µM.
On the same counts, the results for `CCOC(=O)c1c(C)[nH]c(/C=C2\C(=O)Nc3cc(-c4ccc(F)cc4)ccc32)c1CCC(=O)O` [Example 108, 4-(2-Carboxyethyl)-5-[6-(4-fluorophenyl)-2-oxo-1,2-dihydro-indol-3-ylidenemethyl]-2-methyl-1H-pyrrole-3-carboxylic acid ethyl ester] are 1.08 µM, 2.97 µM and 2.57 µM.
`COc1ccccc1-c1ccc2c(c1)NC(=O)/C2=C\c1[nH]c(C)cc1CCC(=O)O` [Example 109, 3-{2-[6-(2-Methoxyphenyl)-2-oxo-1,2-dihydroindol-3-ylidenemethyl]-5-methyl-1H-pyrrol-3-yl}-propionic acid]: the IC50 on flkGST is 2.68 µM; on PDGFR-β, 2.79 µM; in assay [1], greater than 20 µM.
Turning to `CCOC(=O)c1c(C)[nH]c(/C=C2\C(=O)Nc3cc(-c4ccccc4OC)ccc32)c1CCC(=O)O` [Example 110, 4-(2-Carboxyethyl)-5-[6-(2-methoxyphenyl)-2-oxo-1,2-dihydro-indol-3-ylidenemethyl]-2-methyl-1H-pyrrol-3-yl-carboxylic acid ethyl ester], the concentration for half-maximal inhibition (IC50) on flkGST stood at 3.05 µM; at PDGFR-β, 3.15 µM; in assay [1], 17.5 µM.
For `Cc1cc(CCC(=O)O)c(/C=C2\C(=O)Nc3ccc(Cl)cc32)[nH]1` [Example 111, 3-[2-(5-Chloro-2-oxo-1,2-dihydroindol-3-ylidenemethyl)-5-methyl-1H-pyrrol-3-yl]propionic acid], in that order: 0.43 µM, 0.01 µM and 0.47 µM.
In the case of `Cc1c(/C=C2\C(=O)Nc3ccc(C(=O)O)cc32)[nH]c2ccccc12` [Example 156, 3-(3-Methyl-1H-indol-2-ylmethylene)-2-oxo-2,3-dihydro-1H-indole-5-carboxylic acid (piperidine salt)], the figures for the IC50 (on PDGFR-β; in assay [1]; at src protein kinase) were 8.32 µM, 3.6 µM and 0.15 µM, respectively.
As to `O=C1Nc2ccc(Br)cc2/C1=C/c1cc2ccccc2[nH]1` [Example 165, 5-Bromo-3-(1H-indol-2-ylmethylene)-1,3-dihydro-indol-2-one], the half-inhibitory concentration (IC50) on PDGFR-β is 48.7 µM; in assay [1], greater than 20 µM.
For `Cc1cccc2c1/C(=C/c1cc3ccccc3[nH]1)C(=O)N2` [Example 166, 3-(1H-indol-2-ylmethylene)-4-methyl-1,3-dihydro-indol-2-one], in that order: greater than 100 µM and greater than 20 µM.
